The values that follow come from patent US6166091A, “2,3,4-trihydroxycyclopentanone” (Takara Shuzo Co., Ltd., priority 1997, dated 2000).

Data set [1] can be described thus: storage of aqueous cyclopentenone solution, conversion to hydroxycyclopentanone. Type of data set: physicochemical. The conditions noted are these: water; aqueous solution stored at 4° C. for 30 days; read-out: cyclopentenone changed to hydroxycyclopentanone in aqueous solution.
The subject of the next data set is mice. Nature of the data set: toxicity by oral administration to mice. It is filed as in vivo. The conditions noted are these: oral administration of 100 mg/kg to mice.
The nature of data set [2]: standing in aqueous solution, TLC detection of cyclopentenone formed. It is filed as physicochemical. As to conditions: 4 mM in water, 16 hours at 4° C., 37° C. or 45° C. On the procedure:
Hydroxycyclopentanone obtained in Example 2-(2) was dissolved in water to make the concentration 4 mM followed by allowing to stand for 16 hours at 4° C., 37° C. or 45° C. One μl of each of the samples was spotted on a silica gel 60 sheet F254 (manufactured by Merck), developed by the upper layer of a mixture of butyl acetate, acetic acid and water (3:2:2) and detected by means of an orcinol-sulfuric acid method. Thus, 400 mg of orcinol monohydrate (manufactured by Nacalai Tesque; 257-30) was dissolved in 22.8 ml of sulfuric acid, water was added to make 200 ml, the solution was sprayed on the thin layer after the development and heated at 120° C. for 1-2 minutes and the resulting spots were observed.

Consider `O=C1C=CC(O)C1O` (stereo not drawn) [cyclopentenone, 4,5-dihydroxy-2-cyclopenten-1-one], for which the degraded at 720 h in data set [1] was around 30%.

For the compound `O=C1CC(O)C(O)C1O` (stereo not drawn) [hydroxycyclopentanone, 2,3,4-trihydroxycyclopentanone], in the data set on mice, the toxicity result is listed as “no toxicity was noted”. Further, the “conversion to cyclopentenone in aqueous solution (TLC spot)” value in data set [2] was “a spot for cyclopentenone was noted in all of the samples and the higher the temperature for allowing to stand, the stronger the color of the spot for cyclopentenone”.
